Measurements as given in the Kinase Knowledgebase extract (Sharma et al. 2016).

Columns and labels:
PIK3CA (human) = PIK3CA (human) (UniProt P42336); experiment: Assessment of PIK3CA Kinase Activity
PIK3CG (human) = PIK3CG (human) (UniProt P48736); experiment: Assessment of PIK3CG Kinase Activity
PIK3CG (human), sequence (P48736 whole entry, looked up): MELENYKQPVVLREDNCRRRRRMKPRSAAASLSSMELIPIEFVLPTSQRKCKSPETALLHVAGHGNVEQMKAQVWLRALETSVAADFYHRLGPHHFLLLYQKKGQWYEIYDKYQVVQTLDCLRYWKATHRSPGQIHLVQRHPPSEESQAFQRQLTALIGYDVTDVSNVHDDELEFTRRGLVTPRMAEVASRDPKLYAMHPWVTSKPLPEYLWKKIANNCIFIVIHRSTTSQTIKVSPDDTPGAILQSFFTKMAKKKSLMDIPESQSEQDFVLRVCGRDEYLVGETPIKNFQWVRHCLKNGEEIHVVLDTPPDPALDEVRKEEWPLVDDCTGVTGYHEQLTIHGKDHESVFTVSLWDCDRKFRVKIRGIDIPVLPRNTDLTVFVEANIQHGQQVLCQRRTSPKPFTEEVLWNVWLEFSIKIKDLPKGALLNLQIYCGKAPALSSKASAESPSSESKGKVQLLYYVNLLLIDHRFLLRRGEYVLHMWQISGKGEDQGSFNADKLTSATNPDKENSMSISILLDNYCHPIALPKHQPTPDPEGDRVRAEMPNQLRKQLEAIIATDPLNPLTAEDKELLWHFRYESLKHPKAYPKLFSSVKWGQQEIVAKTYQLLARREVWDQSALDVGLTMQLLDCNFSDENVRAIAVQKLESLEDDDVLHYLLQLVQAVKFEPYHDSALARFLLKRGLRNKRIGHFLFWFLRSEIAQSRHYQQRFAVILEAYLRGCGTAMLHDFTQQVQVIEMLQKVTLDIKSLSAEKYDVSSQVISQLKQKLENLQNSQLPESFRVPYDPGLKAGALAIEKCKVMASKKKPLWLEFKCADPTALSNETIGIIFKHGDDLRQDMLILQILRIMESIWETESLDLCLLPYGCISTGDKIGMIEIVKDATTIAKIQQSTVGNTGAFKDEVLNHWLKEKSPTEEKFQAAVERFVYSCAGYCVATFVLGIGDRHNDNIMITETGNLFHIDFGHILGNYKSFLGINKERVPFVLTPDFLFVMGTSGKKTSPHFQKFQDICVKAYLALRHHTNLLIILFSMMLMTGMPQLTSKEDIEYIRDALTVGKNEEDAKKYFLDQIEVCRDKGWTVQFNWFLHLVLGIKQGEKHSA

PIK3CA (human), sequence (P42336 whole entry, looked up): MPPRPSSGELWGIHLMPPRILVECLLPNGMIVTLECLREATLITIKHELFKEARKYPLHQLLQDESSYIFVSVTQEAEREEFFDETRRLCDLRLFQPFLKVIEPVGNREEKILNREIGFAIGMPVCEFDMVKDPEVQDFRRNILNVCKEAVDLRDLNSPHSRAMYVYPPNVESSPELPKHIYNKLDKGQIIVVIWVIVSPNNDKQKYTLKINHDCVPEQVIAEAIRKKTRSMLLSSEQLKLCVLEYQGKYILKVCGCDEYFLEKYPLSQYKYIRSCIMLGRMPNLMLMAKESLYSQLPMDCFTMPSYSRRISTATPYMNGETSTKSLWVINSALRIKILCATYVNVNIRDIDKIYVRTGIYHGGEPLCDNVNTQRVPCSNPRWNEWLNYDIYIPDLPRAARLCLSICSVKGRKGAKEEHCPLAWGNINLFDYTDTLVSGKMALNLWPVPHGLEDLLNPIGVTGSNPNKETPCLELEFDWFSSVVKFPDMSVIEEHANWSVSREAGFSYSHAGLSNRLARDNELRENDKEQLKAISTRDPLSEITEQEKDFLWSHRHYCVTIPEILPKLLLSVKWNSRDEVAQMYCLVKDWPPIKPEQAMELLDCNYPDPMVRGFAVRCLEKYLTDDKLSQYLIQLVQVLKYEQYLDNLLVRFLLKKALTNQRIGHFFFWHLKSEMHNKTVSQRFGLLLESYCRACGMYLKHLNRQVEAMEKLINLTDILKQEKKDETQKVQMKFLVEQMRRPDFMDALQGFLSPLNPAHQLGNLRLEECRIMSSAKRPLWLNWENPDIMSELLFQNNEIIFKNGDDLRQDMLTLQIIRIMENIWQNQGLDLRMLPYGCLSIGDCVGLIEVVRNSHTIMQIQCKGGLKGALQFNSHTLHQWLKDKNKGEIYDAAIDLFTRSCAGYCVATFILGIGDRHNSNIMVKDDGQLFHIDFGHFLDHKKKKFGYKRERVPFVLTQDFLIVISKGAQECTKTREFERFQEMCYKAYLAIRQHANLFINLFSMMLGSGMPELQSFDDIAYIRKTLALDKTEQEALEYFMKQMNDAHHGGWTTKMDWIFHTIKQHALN

| SMILES | IC50 (PIK3CA (human)) | IC50 (PIK3CG (human)) |
| --- | --- | --- |
| CCN1CCc2c(nc(-c3ccc(NC(=O)Nc4ccncc4)cc3)nc2N2CC3CCC(C2)O3)C1 | 153 nM | – |
| CNC(=O)Nc1ccc(-c2nc3c(c(N4CCOCC4)n2)CNC3)cc1 | 5 nM | 67 nM |
| CCN1CCc2c(nc(-c3ccc(NC(=O)Nc4ccc(C(=O)OC)cc4)cc3)nc2N2C3CCC2COC3)C1 | 1280 nM | – |
| CCN1CCc2c(nc(-c3ccc(NC(=O)Nc4ccc(C(N)=O)cc4)cc3)nc2N2C3CCC2COC3)C1 | 1010 nM | – |
| CCCCC(CC)C(=O)N1CCc2c(nc(-c3ccc(NC(=O)NC)cc3)nc2N2CC3CCC(C2)O3)C1 (stereo unspecified) | – | 270 nM |
| CCN1CCc2c(nc(-c3ccc(NC(=O)Nc4ccc(OCCN(C)C)cc4)cc3)nc2N2C3CCC2COC3)C1 | 1220 nM | – |
| CS(=O)(=O)N1Cc2nc(-c3ccc(NC(=O)Nc4cccnc4)cc3)nc(N3CC4CCC(C3)O4)c2C1 | 334 nM | > 10000 nM |
| CNC(=O)Nc1ccc(-c2nc3c(c(N4CC5CCC(C4)O5)n2)CCN(S(=O)(=O)c2ccc(C#N)cc2)C3)cc1 | – | 4000 nM |
| CC(C)(C)OC(=O)N1CCc2c(nc(-c3ccc(NC(=O)Nc4ccncc4)cc3)nc2N2CC3CCC(C2)O3)C1 | 459 nM | – |
| CNC(=O)Nc1ccc(-c2nc3c(c(N4CC5CCC(C4)O5)n2)CCNC3)cc1 | 2720 nM | > 10000 nM |
| CCN1CCc2c(nc(-c3ccc(NC(=O)Nc4ccc(N5CCN(C)CC5)cc4)cc3)nc2N2C3CCC2COC3)C1 | 1920 nM | – |
| CNC(=O)Nc1ccc(-c2nc3c(c(N4CC5CCC(C4)O5)n2)CCN(S(=O)(=O)c2ccc(F)cc2)C3)cc1 | – | 600 nM |
| CNC(=O)Nc1ccc(-c2nc3c(c(N4C5CCC4COC5)n2)CN(S(C)(=O)=O)C3)cc1 | 4 nM | 70 nM |
| CN(C)C1CCN(C(=O)c2ccc(NC(=O)Nc3ccc(-c4nc5c(c(N6CC7CCC(C6)O7)n4)CCN(S(C)(=O)=O)C5)cc3)cc2)CC1 | 2690 nM | > 10000 nM |
| CNC(=O)Nc1ccc(-c2nc3c(c(N4CCOCC4)n2)CN(S(C)(=O)=O)C3)cc1 | 1 nM | 23 nM |
| CNC(=O)Nc1ccc(-c2nc3c(c(N4CC5CCC(C4)O5)n2)CCN(C(=O)COC)C3)cc1 | – | 830 nM |
| CN(C)C1CCN(C(=O)c2ccc(NC(=O)Nc3ccc(-c4nc5c(c(N6CCOCC6)n4)CCN(S(C)(=O)=O)C5)cc3)cc2)CC1 | 315 nM | 3110 nM |
| CCN1CCc2c(nc(-c3ccc(NC(=O)Nc4ccc(C(=O)NC)cc4)cc3)nc2N2C3CCC2COC3)C1 | 861 nM | – |
| CN(C)C1CCN(C(=O)c2ccc(NC(=O)Nc3ccc(-c4nc5c(c(N6C7CCC6COC7)n4)CCNC5)cc3)cc2)CC1 | 321 nM | 3720 nM |
| CCN1CCc2c(nc(-c3ccc(NC(=O)Nc4ccc(C#N)cc4)cc3)nc2N2C3CCC2COC3)C1 | 1650 nM | – |
| O=C(Nc1ccc(-c2nc3c(c(N4CC5CCC(C4)O5)n2)CNC3)cc1)Nc1cccnc1 | 59 nM | 1860 nM |
| CNC(=O)Nc1ccc(-c2nc3c(c(N4CC5CCC(C4)O5)n2)CCN(C(=O)OCC(C)C)C3)cc1 | – | 350 nM |
| CN(C)C1CCN(C(=O)c2ccc(NC(=O)Nc3ccc(-c4nc5c(c(N6CCOCC6)n4)CNC5)cc3)cc2)CC1 | 9 nM | 74 nM |
| CS(=O)(=O)N1CCc2c(nc(-c3ccc(NC(=O)Nc4cccnc4)cc3)nc2N2CC3CCC(C2)O3)C1 | 107 nM | 1240 nM |
| CN(C)C1CCN(C(=O)c2ccc(NC(=O)Nc3ccc(-c4nc5c(c(N6CC7CCC(C6)O7)n4)CNC5)cc3)cc2)CC1 | 110 nM | > 10000 nM |
| CCN1CCc2c(nc(-c3ccc(NC(=O)Nc4ccc(C(F)(F)F)cc4)cc3)nc2N2C3CCC2COC3)C1 | 3010 nM | – |

| SMILES | IC50 (PIK3CA (human)) | IC50 (PIK3CG (human)) |
| --- | --- | --- |
| O=C(Nc1ccncc1)Nc1ccc(-c2nc3c(c(N4C5CCC4COC5)n2)CCN(CC(F)(F)F)C3)cc1 | 1710 nM | – |
| C=CCNC(=O)N1CCc2c(nc(-c3ccc(NC(=O)NC)cc3)nc2N2CC3CCC(C2)O3)C1 | – | 375 nM |
| CNC(=O)Nc1ccc(-c2nc3c(c(N4CC5CCC(C4)O5)n2)CCN(C(=O)NC(C)(C)C)C3)cc1 | – | 375 nM |
| O=C(Nc1ccncc1)Nc1ccc(-c2nc3c(c(N4CC5CCC(C4)O5)n2)CCN(CCF)C3)cc1 | 330 nM | – |
| CCN1CCc2c(nc(-c3ccc(NC(=O)Nc4ccccc4)cc3)nc2N2C3CCC2COC3)C1 | 917 nM | – |
| CN(C)C1CCN(C(=O)c2ccc(NC(=O)Nc3ccc(-c4nc5c(c(N6C7CCC6COC7)n4)CCN(S(C)(=O)=O)C5)cc3)cc2)CC1 | 1330 nM | > 10000 nM |
| O=C(Nc1ccc(-c2nc3c(c(N4C5CCC4COC5)n2)CCNC3)cc1)Nc1cccnc1 | 1790 nM | > 10000 nM |
| COCCN1CCc2c(nc(-c3ccc(NC(=O)Nc4ccncc4)cc3)nc2N2CC3CCC(C2)O3)C1 | 101 nM | – |
| CCCCNC(=O)N1CCc2c(nc(-c3ccc(NC(=O)NC)cc3)nc2N2CC3CCC(C2)O3)C1 | – | 375 nM |
| O=C(Nc1ccc(-c2nc3c(c(N4CCOCC4)n2)CCNC3)cc1)Nc1cccnc1 | 66 nM | 715 nM |
| O=C(Nc1ccc(-c2nc3c(c(N4C5CCC4COC5)n2)CNC3)cc1)Nc1cccnc1 | 25 nM | 841 nM |
| CCN1CCc2c(nc(-c3ccc(NC(=O)NCCF)cc3)nc2N2C3CCC2COC3)C1 | 5780 nM | – |
| CCN1CCc2c(nc(-c3ccc(NC(=O)NC4CC4)cc3)nc2N2C3CCC2COC3)C1 | 4850 nM | – |
| CCN1CCc2c(nc(-c3ccc(NC(=O)Nc4ccc(CN(C)C)cc4)cc3)nc2N2C3CCC2COC3)C1 | 884 nM | – |
| CN(C)C1CCN(C(=O)c2ccc(NC(=O)Nc3ccc(-c4nc5c(c(N6C7CCC6COC7)n4)CN(S(C)(=O)=O)C5)cc3)cc2)CC1 | 67 nM | 573 nM |
| CN1CCc2c(nc(-c3ccc(NC(=O)Nc4cccnc4)cc3)nc2N2C3CCC2COC3)C1 | 1110 nM | 12000 nM |
| CC(C)N1CCc2c(nc(-c3ccc(NC(=O)Nc4ccncc4)cc3)nc2N2CC3CCC(C2)O3)C1 | 2030 nM | – |
| CNC(=O)Nc1ccc(-c2nc3c(c(N4CC5CCC(C4)O5)n2)CCN(S(C)(=O)=O)C3)cc1 | 557 nM | > 10000 nM |
| CNC(=O)Nc1ccc(-c2nc3c(c(N4CC5CCC(C4)O5)n2)CNC3)cc1 | 39 nM | 3390 nM |
| CNC(=O)Nc1ccc(-c2nc3c(c(N4C5CCC4COC5)n2)CCNC3)cc1 | 3760 nM | > 10000 nM |
| CN(C)C1CCN(C(=O)c2ccc(NC(=O)Nc3ccc(-c4nc5c(c(N6CCOCC6)n4)CN(S(C)(=O)=O)C5)cc3)cc2)CC1 | 1 nM | 8 nM |
| O=C(Nc1ccc(-c2nc3c(c(N4CCOCC4)n2)CNC3)cc1)Nc1cccnc1 | 5 nM | 68 nM |
| CCN1CCc2c(nc(-c3ccc(NC(=O)Nc4ccc(CN5CCN(C)CC5)cc4)cc3)nc2N2C3CCC2COC3)C1 | 1280 nM | – |
| CN1CCc2c(nc(-c3ccc(NC(=O)Nc4cccnc4)cc3)nc2N2CCOCC2)C1 | 111 nM | 1370 nM |
| CCN1CCc2c(nc(-c3ccc(NC(=O)Nc4ccc(C(=O)NC(C)C)cc4)cc3)nc2N2C3CCC2COC3)C1 | 528 nM | – |
| CCCCC(=O)N1CCc2c(nc(-c3ccc(NC(=O)NC)cc3)nc2N2CC3CCC(C2)O3)C1 | – | 545 nM |

| SMILES | IC50 (PIK3CA (human)) | IC50 (PIK3CG (human)) |
| --- | --- | --- |
| COC(=O)N1CCc2c(nc(-c3ccc(NC(=O)Nc4ccncc4)cc3)nc2N2C3CCC2COC3)C1 | 377 nM | – |
| CCN1CCc2c(nc(-c3ccc(NC(=O)Nc4ccc(C(=O)N5CCN(C)CC5)cc4)cc3)nc2N2C3CCC2COC3)C1 | 211 nM | – |
| CNC(=O)Nc1ccc(-c2nc3c(c(N4CC5CCC(C4)O5)n2)CCN(C(=O)c2ccc(C(C)(C)C)cc2)C3)cc1 | – | 3350 nM |
| CC(C)N1CCc2c(nc(-c3ccc(NC(=O)Nc4ccncc4)cc3)nc2N2C3CCC2COC3)C1 | 2470 nM | – |
| CNC(=O)Nc1ccc(-c2nc3c(c(N4CC5CCC(C4)O5)n2)CCN(C(=O)CCC2CCCC2)C3)cc1 | – | 1050 nM |
| CNC(=O)Nc1ccc(-c2nc3c(c(N4CC5CCC(C4)O5)n2)CCN(S(=O)(=O)N(C)C)C3)cc1 | – | 190 nM |
| CN(C)CC(=O)N1CCc2c(nc(-c3ccc(NC(=O)Nc4ccncc4)cc3)nc2N2C3CCC2COC3)C1 | 807 nM | – |
| O=C(Nc1ccncc1)Nc1ccc(-c2nc3c(c(N4C5CCC4COC5)n2)CC[N+](CCF)(CCF)C3)cc1 | 1870 nM | – |
| CCN1CCc2c(nc(-c3ccc(NC(=O)Nc4ccc(C(=O)N5CCCC5)cc4)cc3)nc2N2C3CCC2COC3)C1 | 220 nM | – |
| CNC(=O)Nc1ccc(-c2nc3c(c(N4CC5CCC(C4)O5)n2)CCN(C(=O)c2c(F)cccc2F)C3)cc1 | – | 300 nM |
| CCCCOC(=O)N1CCc2c(nc(-c3ccc(NC(=O)NC)cc3)nc2N2CC3CCC(C2)O3)C1 | – | 375 nM |
| CNC(=O)Nc1ccc(-c2nc3c(c(N4CC5CCC(C4)O5)n2)CCN(S(=O)(=O)c2ccc(Cl)cc2)C3)cc1 | – | 3100 nM |
| CNC(=O)Nc1ccc(-c2nc3c(c(N4CC5CCC(C4)O5)n2)CCN(C(=O)c2ccccc2OC)C3)cc1 | – | 900 nM |
| CCCCCCNC(=O)N1CCc2c(nc(-c3ccc(NC(=O)NC)cc3)nc2N2CC3CCC(C2)O3)C1 | – | 195 nM |
| CN1CCc2c(nc(-c3ccc(NC(=O)Nc4ccncc4)cc3)nc2N2C3CCC2COC3)C1 | 2770 nM | – |
| CNC(=O)Nc1ccc(-c2nc3c(c(N4CC5CCC(C4)O5)n2)CCN(C(=O)C(C)(C)C)C3)cc1 | – | 300 nM |
| CNC(=O)Nc1ccc(-c2nc3c(c(N4CC5CCC(C4)O5)n2)CCN(S(=O)(=O)c2ccccc2)C3)cc1 | – | 205 nM |
| CN1CCN(c2ccc(NC(=O)Nc3ccc(-c4nc5c(c(N6C7CCC6COC7)n4)CCN(CC(F)(F)F)C5)cc3)cc2)CC1 | 1340 nM | – |
| CCCCCCC(=O)N1CCc2c(nc(-c3ccc(NC(=O)NC)cc3)nc2N2CC3CCC(C2)O3)C1 | – | 960 nM |
| CCN1CCc2c(nc(-c3ccc(NC(=O)Nc4ccc(N5CCC(N(C)C)CC5)cc4)cc3)nc2N2C3CCC2COC3)C1 | 1070 nM | – |
| CCN1CCc2c(nc(-c3ccc(NC(=O)Nc4ccc(CN5CCCC5)cc4)cc3)nc2N2C3CCC2COC3)C1 | 737 nM | – |
| CNC(=O)Nc1ccc(-c2nc3c(c(N4CC5CCC(C4)O5)n2)CCN(C(=O)NC2CCCCC2)C3)cc1 | – | 600 nM |
| CNC(=O)Nc1ccc(-c2nc3c(c(N4CC5CCC(C4)O5)n2)CCN(C(=O)c2ccccc2F)C3)cc1 | – | 360 nM |
| CCN1CCc2c(nc(-c3ccc(NC(=O)Nc4ccc(C(=O)O)cc4)cc3)nc2N2C3CCC2COC3)C1 | 4130 nM | – |
| CCN1CCc2c(nc(-c3ccc(NC(=O)Nc4ccc(C(=O)N(C)C)cc4)cc3)nc2N2C3CCC2COC3)C1 | 554 nM | – |
